Test results published in patent US10710996B2, “Pyrido-azaheterecydic compound and preparation method and use thereof” (SHANGHAI INSTITUTE OF MATERIA MEDICA, CHINESE ACADEMY OF …, priority 2015, dated 2020).

Legend:
[1] = molecular target: T1, c-Met kinase (Homo sapiens, UniProt P08581); assay: Inhibitory effect on c-Met kinase activity at molecular level (ELISA); type: biochemical;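 also: recombinant c-Met kinase domain with 5 µM ATP, 1 h at 37 °C, substrate phosphorylation detected by anti-phosphotyrosine PY99 ELISA at 490 nm versus DMSO negative control, ATP-free wells as blank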
T1 construct: c-Met kinase domain recombinant protein diluted with 49 μL of the reaction buffer was added
T1 sequence (P08581 1078-1345 limits assumed): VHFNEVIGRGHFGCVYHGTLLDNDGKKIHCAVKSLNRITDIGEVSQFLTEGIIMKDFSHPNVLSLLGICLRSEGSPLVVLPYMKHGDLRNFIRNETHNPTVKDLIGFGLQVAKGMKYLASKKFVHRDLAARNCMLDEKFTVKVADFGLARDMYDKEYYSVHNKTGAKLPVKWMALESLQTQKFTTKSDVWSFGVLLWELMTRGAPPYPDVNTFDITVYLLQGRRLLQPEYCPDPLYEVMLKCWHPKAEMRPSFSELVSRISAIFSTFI

[2] = system: EBC-1 cells; assay: Inhibition of c-Met-mediated EBC-1 cell proliferation (SRB staining); type: cell-based; settings: Homo sapiens, 72 hours treatment
Experimental: The inhibitory effect of the compounds on the growth of non-small cell cancer EBC-1 cell (a cell line in which Met is continually activated due to the amplification of MET gene, and is a Met-dependent tumor cell line) was measured by sulforhodamine B (SRB) staining assay. A certain amount of EBC-1 cells in their logarithmic growth phase were seeded in 96-well plates at 90 μL per well and cultured overnight, then 10 μL of different concentrations of compounds or solvent control were added thereto, three wells for each concentration. After treated by the compound for 72 hours, the adherent cells were removed of culture medium and fixed with 10% (w/v) trichloroacetic acid (100 μL/well) at 4° C. for 1 hr followed by rinsing with distilled water five times. After drying at room temperature, 100 μL of SRB solution (dissolved in 1% glacial acetic acid at 4 mg/mL) was added to each well to incubate and stain the cells for 15 min at room temperature, then unbound SRB was washed off with 1% glacial acetic acid for five times. After drying at room temperature, 100 μL of 10 mM Tris solution was added to each well. The optical density (OD value) at 515 nm was read on a VERSMax microplate reader. […] The experiment was repeated twice. The IC50 data was calculated as a range based on the test results of concentrations set in the initial screening test.

Compound	IC50 [1]	IC50 [2]
O=C(Nc1ccc(F)cc1)C1(C(=O)Nc2ccc(Oc3ccnc4cc(-c5cncnc5)ncc34)c(F)c2)CC1 [Compound 47S, N-(3-fluoro-4-((7-(pyrimidin-5-yl)-1,6-naphthyridin-4-yl)oxy)phenyl)-N-(4-fluorophenyl)cyclopropyl-1,1-dicarboxamide]	1 to 10 nM	10 to 100 nM
O=C(Nc1ccc(Oc2ccnc3c(Br)c(OCCN4CCOCC4)ncc23)c(F)c1)c1c[nH]cc(-c2ccccc2)c1=O [Compound 19S, N-(4-((8-bromo-7-(2-morpholinoethoxy)-1,6-naphthyridin-4-yl)oxy)-3-fluorophenyl)-4-oxo-5-phenyl-1,4-dihydropyridine-3-carboxamide]	10 to 100 nM	
O=C(Nc1ccc(F)cc1)C1(C(=O)Nc2ccc(Oc3ccnc4cc(-c5cnoc5)ncc34)c(F)c2)CC1 [Compound 51S]	1 to 10 nM	
C[C@@H]1COCCN1CCOc1cc2nccc(Oc3ccc(NC(=O)C4(C(=O)Nc5ccc(F)cc5)CC4)cc3F)c2cn1 [Compound 30S, (R)-N-(3-fluoro-4-((7-(2-(3-methylmorpholino)ethoxy)-naphthyridin-4-yl)oxy)phenyl)-N-(4-fluorophenyl) cyclopropyl-1,1-dicarboxamide]	10 to 100 nM	
CN1CCN(CCOc2ncc3c(Oc4ccc(NC(=O)C5(C(=O)Nc6ccc(F)cc6)CC5)cc4F)ccnc3c2Br)CC1 [Compound 10S, N-(4-((8-bromo-7-(2-(4-methylpiperazin-1-yl)ethoxy)-1,6-naphthyridin-4-yl)oxy)-3-fluorophenyl)-N-(4-fluorophenyl) cyclopropyl-1,1-dicarboxamide]	10 to 100 nM	
O=C(Nc1ccc(F)cc1)C1(C(=O)Nc2ccc(Oc3ccnc4cc(N5CCOCC5)ncc34)c(F)c2)CC1 [Compound 27S, N-(3-fluoro-4-((7-morpholino-1,6-naphthyridin-4-yl)oxy)phenyl)-N-(4-fluorophenyl)cyclopropyl-1,1-dicarboxamide]	10 to 100 nM	
O=C(Nc1ccc(F)cc1)C1(C(=O)Nc2ccc(Oc3ccnc4cc(-c5ccsn5)ncc34)c(F)c2)CC1 [Compound 52S]	100 to 1000 nM	
CN(C(=O)C1(C(=O)Nc2ccc(Oc3ccnc4cc(OCCN5CCOCC5)ncc34)c(F)c2)CC1)c1ccc(F)cc1 [Compound 14S, N-(3-fluoro-4-((7-(2-morpholinoethoxy)-1,6-naphthyridin-4-yl)oxy)phenyl)-N-(4-fluorophenyl)-N-methylcyclopropyl-1,1-dicarboxamide]	100 to 1000 nM	
CCN1CCC(Nc2cc3nccc(Oc4ccc(NC(=O)c5ccnn(-c6ccc(F)cc6)c5=O)cc4F)c3cn2)C(F)C1 (centres unmarked) [Compound 35S, N-(4-((7-((1-ethyl-3-fluoropiperidin-4-yl)amino)-1,6-naphthyridin-4-yl)oxy)-3-fluorophenyl)-2-(4-fluorophenyl)-3-oxo-2,3-dihydropyridazine-4-carboxamide]	10 to 100 nM	
O=C(Nc1ccc(F)cc1)C1(C(=O)Nc2ccc(Oc3ccnc4cc(OCCn5ccnc5)ncc34)c(F)c2)CC1 [Compound 31S, N-(4-((7-(2-(1H-imidazol-1-yl)ethoxy)-naphthyridin-4-yl)oxy)-3-fluorophenyl)-N-(4-fluorophenyl)cyclopropyl-1,1-dicarboxamide]	10 to 100 nM	
O=C(Nc1ccc(F)cc1)C1(C(=O)Nc2ccc(Oc3ccnc4nc(OCCCN5CCOCC5)cnc34)c(F)c2)CC1 [Compound 61S, N-(3-fluoro-4-((3-(3-morpholinopropoxy)pyrido[2,3-b]pyrazin-8-yl)oxy)phenyl)-N-(4-fluorophenyl)cyclopropyl-1,1-dicarboxamide]	10 to 100 nM	
CN1CCN(CCOc2cnc3nccc(Oc4ccc(NC(=O)C5(C(=O)Nc6ccc(F)cc6)CC5)cc4F)c3n2)CC1 [Compound 66S, N-(3-fluoro-4-((2-(2-(4-methylpiperazin-1-yl)ethoxy)pyrido[2,3-b]pyrazin-8-yl)oxy)phenyl)-N-(4-fluorophenyl) cyclopropyl-1,1-dicarboxamide]		1000 to 10000 nM
O=C(Nc1ccc(F)cc1)C1(C(=O)Nc2ccc(Oc3ccnc4c(Br)c(OCCN5CCOCC5)ncc34)c(F)c2)CC1 [Compound 6S, N-(4-((8-bromo-7-(2-morpholinoethoxy)-1,6-naphthyridin-4-yl)oxy)-3-fluorophenyl)-N-(4-fluorophenyl) cyclopropyl-1,1-dicarboxamide]	10 to 100 nM	
COC(=O)c1cccn(-c2ccc(Oc3ccnc4cc(OCCN5CCOCC5)ncc34)c(F)c2)c1=O [Compound 17S, methyl 1-(3-fluoro-4-((7-(2-morpholinoethoxy)-1,6-naphthyridin-4-yl)oxy)phenyl)-2-oxo-1,2-dihydropyridine-3-carboxylate]	1 to 10 nM	
Nc1ccc(Oc2ccnc3c(Br)c(OCCN4CCOCC4)ncc23)c(F)c1 [Compound 4S, 4-((8-bromo-7-(2-morpholinoethoxy)-1,6-naphthyridin-4-yl)oxy)-3-fluoroaniline]	1000 to 10000 nM	
O=C(Nc1ccc(F)cc1)C1(C(=O)Nc2ccc(Oc3ccnc4[nH]c(=O)cnc34)c(F)c2)CC1 [Compound 33S, N-(3-fluoro-4-((3-oxo-3,4-dihydropyrido [2,3-b]pyrazin-8-yl)oxy)phenyl)-N-(4-fluorophenyl)cyclopropyl-1,1-dicarboxamide]	100 to 1000 nM	
O=C(Nc1ccc(F)cc1)C1(C(=O)Nc2ccc(Oc3ccnc4cc(N5CCC(N6CCOCC6)CC5)ncc34)c(F)c2)CC1 [Compound 28S, N-(3-fluoro-4-((7-(4-morpholinopiperidin-1-yl)--naphthyridin-4-yl)oxy)phenyl)-N-(4-fluorophenyl)cyclopropyl-1,1-dicarboxamide]	10 to 100 nM	
O=C(COc1cc2nccc(Oc3ccc(NC(=O)C4(C(=O)Nc5ccc(F)cc5)CC4)cc3F)c2cn1)N1CCOCC1 [Compound 36S, N-(3-fluoro-4-((7-(2-morpholino-2-acetoxy)-1,6-naphthyridin-4-yl)oxy)phenyl)-N-(4-fluorophenyl)cyclopropyl-1,1-dicarboxamide]	10 to 100 nM	
O=C(Nc1ccc(F)cc1)C1(C(=O)Nc2ccc(Oc3ccnc4ncc(=O)[nH]c34)c(F)c2)CC1 [Compound 34S, N-(3-fluoro-4-((2-oxo-1,2-dihydropyrido [2,3-b]pyrazin-8-yl)oxy)phenyl)-N-(4-fluorophenyl)cyclopropyl-1,1-dicarboxamide]	100 to 1000 nM	
O=C(Cc1ccccc1)Nc1ccc(Oc2ccnc3c(Br)c(OCCN4CCOCC4)ncc23)c(F)c1 [Compound 18S, N-(4-((8-bromo-7-(2-morpholinoethoxy)-1,6-naphthyridin-4-yl)oxy)-3-fluorophenyl)-2-phenylacetamide]	100 to 1000 nM	
O=C(Nc1ccc(F)cc1)C1(C(=O)Nc2ccc(Oc3ccnc4cc(-c5ccc([N+](=O)[O-])cc5)ncc34)c(F)c2)CC1 [Compound 48S, N-(3-fluoro-4-((7-(4-nitrophenyl)-1,6-naphthyridin-4-yl)oxy)phenyl)-N-(4-fluorophenyl)cyclopropyl-1,1-dicarboxamide]	10 to 100 nM	
O=C(Nc1ccc(F)cc1)c1cccn(-c2ccc(Oc3ccnc4cc(OCCN5CCOCC5)ncc34)c(F)c2)c1=O [Compound 16S, 1-(3-fluoro-4-((7-(2-morpholinoethoxy)-1,6-naphthyridin-4-yl)oxy)phenyl)-N-(4-fluorophenyl)-2-oxo-1,2-dihydropyridine-3-carboxamide]	10 to 100 nM	
O=C(Nc1ccc(Oc2ccnc3c(Br)c(OCCN4CCOCC4)ncc23)c(F)c1)c1c[nH]cc(-c2ccc(F)cc2)c1=O [Compound 21S, N-(4-((8-bromo-7-(2-morpholinoethoxy)-1,6-naphthyridin-4-yl)oxy)-3-fluorophenyl)-5-(4-fluorophenyl)-4-oxo-1,4-dihydropyridine-3-carboxamide]	10 to 100 nM	
Nc1ccc(Oc2ccnc3cc(OCCN4CCOCC4)ncc23)c(F)c1 [Compound 5S]	100 to 1000 nM	
Cn1cc(-c2cc3nccc(Oc4ccc(NC(=O)c5cccn(-c6ccc(F)cc6)c5=O)cc4F)c3cn2)cn1 [Compound 53S, N-(3-fluoro-4-((7-(1-methyl-1H-pyrazol-4-yl)-1,6-naphthyridin-4-yl)oxy)phenyl)-1-(4-fluorophenyl)-2-oxo-1,2-dihydropyridine-3-carboxamide]	10 to 100 nM	
O=C(Nc1ccc(F)cc1)C1(C(=O)Nc2ccc(Oc3ccnc4cc(-c5ccc(N6CCOCC6)cc5)ncc34)c(F)c2)CC1 [Compound 50S, N-(3-fluoro-4-((7-(4-morpholinophenyl)-1,6-naphthyridin-4-yl)oxy)phenyl)-N-(4-fluorophenyl)cyclopropyl-1,1-dicarboxamide]	10 to 100 nM	
O=C(Nc1ccc(F)cc1)C1(C(=O)Nc2ccc(Oc3ccnc4cc(N5CCN(Cc6ccccc6)CC5)ncc34)c(F)c2)CC1 [Compound 32S, N-(4-((7-(4-benzylpiperazin-1-yl)-naphthyridin-4-yl)oxy)-3-fluorophenyl)-N-(4-fluorophenyl)cyclopropyl-1,1-dicarboxamide]	10 to 100 nM	
C[C@H]1COCCN1CCOc1cc2nccc(Oc3ccc(NC(=O)C4(C(=O)Nc5ccc(F)cc5)CC4)cc3F)c2cn1 [Compound 29S, (S)-N-(3-fluoro-4-((7-(2-(3-methylmorpholino)ethoxy)-naphthyridin-4-yl)oxy)phenyl)-N-(4-fluorophenyl) cyclopropyl-1,1-dicarboxamide]	10 to 100 nM	
